# Measurements reported in paper PMC9609004, “Computational Design, Synthesis, and Pharmacological Evaluation of Naproxen-Guaiacol Chimera for Gastro-Sparing Anti-Inflammatory Response by Selective COX2 Inhibition” (Molecules, 2022).
# Values joined by “and” are separate entries in the source; they are usually repeats but may differ in a detail not shown here. Equal values may be shown once. “Also recorded” adds a separate entry of the source. Read-outs that look alike come from different tables or passages of the source.
# Experiments:
# [1] = target: T1, COX1 (Ovis aries, UniProt P05979); experiment: Cyclooxygenase (COX1) inhibitory assay, ovine/human COX inhibitor assay kit; format: biochemical; conditions: n = 3, mean ± SD
# T1 construct: purchased
# T1 sequence (P05979 25-600): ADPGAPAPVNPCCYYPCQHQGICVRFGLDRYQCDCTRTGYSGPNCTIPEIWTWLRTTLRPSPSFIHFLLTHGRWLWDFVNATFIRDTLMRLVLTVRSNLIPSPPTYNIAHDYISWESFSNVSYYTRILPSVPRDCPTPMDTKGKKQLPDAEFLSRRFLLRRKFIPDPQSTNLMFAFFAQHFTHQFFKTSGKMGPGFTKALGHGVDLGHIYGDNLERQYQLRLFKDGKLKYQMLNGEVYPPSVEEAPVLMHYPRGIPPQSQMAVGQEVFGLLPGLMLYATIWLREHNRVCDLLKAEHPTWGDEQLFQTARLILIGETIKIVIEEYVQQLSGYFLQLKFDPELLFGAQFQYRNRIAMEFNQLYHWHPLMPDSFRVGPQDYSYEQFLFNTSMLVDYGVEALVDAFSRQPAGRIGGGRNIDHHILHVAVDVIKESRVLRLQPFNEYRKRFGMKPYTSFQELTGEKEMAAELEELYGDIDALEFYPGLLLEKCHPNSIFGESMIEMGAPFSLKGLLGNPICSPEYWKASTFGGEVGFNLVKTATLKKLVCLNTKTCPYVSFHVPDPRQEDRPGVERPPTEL
# Protocol: (§1) After that, 10 µL of arachidonic acid (100 µM), after 2 min of 1 M HCl of 50 µL and Ellman’s reagent, was added. The absorbance at 410 nm was measured spectrophotometrically against the blank. The selectivity index was calculated as follows:SI = IC50 COX1/IC50 COX2
# [2] = target: T2, COX2 (Homo sapiens, UniProt P35354); experiment: Cyclooxygenase (COX2) inhibitory assay, ovine/human COX inhibitor assay kit; format: biochemical
# T2 construct: purchased
# T2 sequence (P35354 18-604): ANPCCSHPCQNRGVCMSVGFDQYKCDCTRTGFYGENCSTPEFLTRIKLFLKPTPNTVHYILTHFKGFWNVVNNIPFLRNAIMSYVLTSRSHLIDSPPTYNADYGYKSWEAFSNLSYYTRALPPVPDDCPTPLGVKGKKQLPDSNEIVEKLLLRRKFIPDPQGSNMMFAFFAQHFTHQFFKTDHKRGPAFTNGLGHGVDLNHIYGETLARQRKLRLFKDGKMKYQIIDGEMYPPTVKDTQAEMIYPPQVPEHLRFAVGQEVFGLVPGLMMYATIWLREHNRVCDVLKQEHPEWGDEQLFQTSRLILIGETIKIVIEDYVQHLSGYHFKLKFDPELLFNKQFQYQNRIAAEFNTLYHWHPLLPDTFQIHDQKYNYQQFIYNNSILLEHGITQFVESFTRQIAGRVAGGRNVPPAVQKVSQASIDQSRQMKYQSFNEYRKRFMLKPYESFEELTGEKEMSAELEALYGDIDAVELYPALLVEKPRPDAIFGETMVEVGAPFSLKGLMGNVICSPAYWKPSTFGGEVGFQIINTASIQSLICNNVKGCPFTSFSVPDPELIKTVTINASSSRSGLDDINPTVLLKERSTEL
# Protocol: as §1
# [3] = target: T3, human recombinant 5-LOX (Homo sapiens, UniProt P09917); experiment: 5-Lipoxygenase inhibitory assay (5-LOX assay kit); format: biochemical
# T3 construct: purchased
# T3 sequence (P09917 1-674): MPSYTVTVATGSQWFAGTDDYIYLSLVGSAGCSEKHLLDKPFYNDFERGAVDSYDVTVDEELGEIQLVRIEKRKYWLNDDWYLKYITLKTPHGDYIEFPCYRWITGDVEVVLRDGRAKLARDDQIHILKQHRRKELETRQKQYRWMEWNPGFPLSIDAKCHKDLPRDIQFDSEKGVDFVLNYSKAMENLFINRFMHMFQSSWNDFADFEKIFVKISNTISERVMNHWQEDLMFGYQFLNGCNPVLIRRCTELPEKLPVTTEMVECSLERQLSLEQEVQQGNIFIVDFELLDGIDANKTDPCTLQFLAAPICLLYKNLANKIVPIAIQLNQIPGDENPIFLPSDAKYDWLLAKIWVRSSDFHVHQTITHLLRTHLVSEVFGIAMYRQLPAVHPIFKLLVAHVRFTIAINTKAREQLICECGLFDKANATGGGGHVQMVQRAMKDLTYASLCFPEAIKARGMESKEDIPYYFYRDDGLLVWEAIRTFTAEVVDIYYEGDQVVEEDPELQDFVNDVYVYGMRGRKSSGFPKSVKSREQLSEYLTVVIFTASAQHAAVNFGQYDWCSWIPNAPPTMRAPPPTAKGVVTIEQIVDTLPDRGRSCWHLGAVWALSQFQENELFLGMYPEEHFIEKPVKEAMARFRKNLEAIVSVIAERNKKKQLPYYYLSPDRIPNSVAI
# Protocol: The MAS 1696 was tested against human recombinant 5-LOX using a 5-LOX assay kit. Briefly, 5-LOX solution (90 µL) was added with various MAS-1696 concentrations. The arachidonic acid (10 µL) was further added and the absorbance was measured at 490 nm against the blank.
# [4] = test system: carrageenan-induced paw edema; experiment: Rat paw edema test induced by carrageenan; format: in vivo, Wistar rats; conditions: carrageenan 1% w/v, 2 h and 4 h, S-naproxen 15 mg/kg p.o., 4-allyl guaiacol 15.46 mg/kg, n = 6
# Protocol: In vivo studies were performed as per the guidelines issued by the WHO, Geneva. The protocol was approved by the IAEC for animal handling. The Wistar rats (male; 225–250 g) and ICR mice (20–25 g) were procured from the Animal House facility of Panjab University Chandigarh. The anti-inflammatory activity of MAS-1696 was determined by injecting carrageenan in rat paws as published by us previously. The different groups of rats with six animals in each group were administered the drug. The fresh solution of carrageenan (Type IV, 0.1 mL, 1%) was used to induce acute edema by injecting it under the plantar aspect of the left hind paw. One […] (0.9%) of saline was administered to the right paw (control group). A plethysmometer was used to measure the change in the paw volume between two and four hours after the carrageenan challenge.
# [5] = test system: stomach (gastric ulcers); experiment: Determination of ulcer index (gastric damage); format: in vivo, rats; conditions: S-naproxen 120 mg/kg p.o., equimolar doses of MAS-1696 or physical mixture; 4 h after treatment; n = 6
# Protocol: The fasting rats were separated into four groups (n = 6). […] After 4 h of treatment, animals were sacrificed and the stomach was separated. This removed stomach was opened along the greater curvature and cleaned using saline to check for ulcers. The ulcers were graded as: 0—Normal texture stomach 0.5—Red coloration 1.0—Spot of ulcers 1.5—Hemorrhagic streaks 2.0—Ulcers up to 3 3.0—Ulcers above 3
# [6] = Partition/distribution coefficient (log P), shake flask method with HPLC; format: physicochemical; conditions: 1-octanol–0.05 M phosphate buffer pH 7.4, 25 °C, n = 2
# Protocol: (§2) The chromatographic purity of the compound MAS-1696, partition coefficient, chemical stability, and metabolic stability were assessed using RP-HPLC. An isocratic elution system of acetonitrile-methanol-water-acetic acid (70:18:12:0.01) was used. An injection volume of 10 µL and flow rate of 1 mL/min with a relative standard deviation of 0.5% reproducibility was maintained.
# The aqueous phase and 1-octanol were stirred overnight. The MAS-1696 in 1-octanol (2 mL) and phosphate buffer (5 mL) was stirred at 25 °C in a water bath shaker for 8 h. Both layers were separated and filtered through Millipore’s 0.22 µm nylon membrane filter. The 1-octanol layer was diluted appropriately before being injected into the HPLC. The log P was determined by using the following equation:log Poct/wat = log ([solute]octanol)/([solute]unionized water)
# [7] = Aqueous solubility in buffer pH 7.4 (HPLC); format: physicochemical; conditions: aqueous buffer of pH 7.4, HPLC
# [8] = In vitro stability in simulated gastric fluid (HCl buffer pH 2); format: physicochemical; conditions: for % MAS-1696 Left in the Simulated Gastric Fluid of pH 2: 37 °C
# Protocol: as §2
# The HCl buffer (pH 2) at 37 °C was used to evaluate the chemical stability of MAS-1696. To a 400 µL solution of MAS-1696 (10 mg/mL in chloroform), 3.6 mL of HCl buffer (pH 2) was added and kept on a shaker plate at 37 °C. Aliquots (400 µL) collected at different time points were mixed with 1600 µL of acetonitrile. After centrifugation, the supernatant was subjected to HPLC analysis. The remaining percentage of MAS-1696 was determined using the formula:% remaining = (peak area at the respective time (min)/peak area at 0 min) × 100
# [9] = In vitro human plasma stability; format: in vitro ADME; conditions: for % MAS-1696 Left in Human Plasma: 37 °C
# Protocol: as §2
# To a 50 µL solution of MAS-1696 (10 mg/mL in chloroform), 900 µL of human plasma was added and kept on a shaker plate at 37 °C. Aliquots (100 µL) were collected at different intervals and mixed with 900 µL of acetonitrile for precipitation of proteins. After centrifugation, the supernatant was subjected to HPLC analysis. The remaining percentage of the conjugate was calculated using the formula:% remaining = (peak area at the respective time (min)/peak area at 0 min) × 100.
smiles,measurement,setting,value
"C=CCc1ccc(OC(=O)[C@@H](C)c2ccc3cc(OC)ccc3c2)c(OC)c1 [MAS-1696, (S)-4-Allyl-2-methoxyphenyl 2-(2-methoxynaphthalen-6-yl)propanoate]",IC50,[1],8.5 µM
same,Selectivity Index,[2]; SI = IC50 COX1/IC50 COX2,1.1
same,IC50,"[2]; n = 3, mean ± SD, read-out: IC50 COX2 (converted)",7.76 µM
same,Rise in selectivity for COX2 over COX1 (COX selectivity index) compared to naproxen,[2]; vs parent compound naproxen,23%
same,IC50,"[3]; n = 3, mean ± SD, read-out: IC50 5-LOX (converted)",28.5 µM
same,"Anti-inflammatory effect (edema, paw volume)",[4],anti-inflammatory potency comparable or even superior to S-naproxen
same,"Anti-inflammatory effect (edema, paw volume)",[4]; listed as MAS1696,better anti-inflammatory effect when compared with S-naproxen
same,Ulcer score / gastric damage,[5],considerably less damage; also recorded: significantly less stomach damage
same,logP at 8 h,[6],4.7 ± 0.26
same,Solubility (pH 7.4),[7],BDL
same,% MAS-1696 Left in the Simulated Gastric Fluid of pH 2,[8]; 0 h,100%
same,% MAS-1696 Left in the Simulated Gastric Fluid of pH 2,[8]; 2 h,96.16%
same,% MAS-1696 Left in the Simulated Gastric Fluid of pH 2,[8]; 5 h,90.72%
same,% MAS-1696 Left in the Simulated Gastric Fluid of pH 2,[8]; 8 h,83.30%
same,% MAS-1696 Left in the Simulated Gastric Fluid of pH 2,[8]; 12 h,77% and 77.03%
same,% of MAS-1696 hydrolyzed in simulated gastric fluid,"[8]; pH 2, 0 h",0%
same,% of MAS-1696 hydrolyzed in simulated gastric fluid,"[8]; pH 2, 2 h",3.84%
same,% of MAS-1696 hydrolyzed in simulated gastric fluid,"[8]; pH 2, 5 h",9.28%
same,% of MAS-1696 hydrolyzed in simulated gastric fluid,"[8]; pH 2, 8 h",16.7%
same,% of MAS-1696 hydrolyzed in simulated gastric fluid,"[8]; pH 2, 12 h",22.97%
same,% MAS-1696 Left in Human Plasma,[9]; 0 min,100%
same,Hydrolysis in human plasma (in words),"[9]; 80% human plasma, 0, 30 and 60 min",completely hydrolyzed within half an hour; also recorded: readily hydrolyzed
same,% MAS-1696 Left in Human Plasma,[9]; 30 min,0%
same,% MAS-1696 Left in Human Plasma,[9]; 60 min,0%
same,melting point,,99 to 100 °C
"COc1ccc2cc([C@H](C)C(=O)O)ccc2c1 [Naproxen, S-naproxen]",IC50,[2],20.1 µM
same,IC50,[3],36.5 µM
same,"Anti-inflammatory effect (edema, paw volume)",[4],significant decrease in the edema and paw volume
same,Ulcer score / gastric damage,[5],substantial rise in ulcer score compared with the control
